Measured values from ChEMBL document CHEMBL3880421, “Indazole compounds and pharmaceutical compositions for inhibiting protein kinases, and methods for their use” (2003).

Key:
[1] = Antiproliferative activity against VEGF-stimulated HUVEC cells assessed as reduction in cell viability at 0.5 nM preincubated for 1 hr followed by addition of VEGF measured after 72 hrs by MTT assay; type: functional; settings: Homo sapiens
[2] = Antiproliferative activity against VEGF-stimulated HUVEC cells assessed as reduction in cell viability at 2 nM preincubated for 1 hr followed by addition of VEGF measured after 72 hrs by MTT assay; type: functional; settings: Homo sapiens

Row | Structure (SMILES) | inhibition at 0.0005 µM [1] | inhibition at 0.002 µM [2]
1 | O=C(NCCO)c1ccccc1Nc1ccc2c(/C=C/c3ccccn3)n[nH]c2c1 | 18% | 24%
2 | O=C(Nc1nnn[nH]1)c1ccccc1Nc1ccc2c(/C=C/c3ccccn3)n[nH]c2c1 | 21 to 39% | 18 to 64%
3 | O=C1CSC(NC(=O)c2ccccc2Nc2ccc3c(/C=C/c4ccccn4)n[nH]c3c2)=N1 | 9% | -9%
4 | CCC(CC)NC(=O)c1ccccc1Nc1ccc2c(/C=C/c3ccccn3)n[nH]c2c1 | 25% | 14%
5 | COC[C@H]1CCCN1NC(=O)c1ccccc1Nc1ccc2c(/C=C/c3ccccn3)n[nH]c2c1 | 18% | 11%
6 | CC(C)C(CO)NC(=O)c1ccccc1Nc1ccc2c(/C=C/c3ccccn3)n[nH]c2c1 (centres undefined) | 21% | -5%
7 | CC(C)CCNC(=O)c1ccccc1Nc1ccc2c(/C=C/c3ccccn3)n[nH]c2c1 | 14 to 47% | 47 to 55%
8 | CCCCCCCCNC(=O)c1ccccc1Nc1ccc2c(/C=C/c3ccccn3)n[nH]c2c1 | 26% | 16%
9 | C=CCNC(=O)c1ccccc1Nc1ccc2c(/C=C/c3ccccn3)n[nH]c2c1 | 30% | 86%
10 | CSc1nc(NC(=O)c2ccccc2Nc2ccc3c(/C=C/c4ccccn4)n[nH]c3c2)nn1C | 16% | 2%
11 | O=C(NCCOc1ccccc1)c1ccccc1Nc1ccc2c(/C=C/c3ccccn3)n[nH]c2c1 | 16% | 73%
12 | O=C(NN1CCOCC1)c1ccccc1Nc1ccc2c(/C=C/c3ccccn3)n[nH]c2c1 | 1% | 53%
13 | O=C(NNCC(F)(F)F)c1ccccc1Nc1ccc2c(/C=C/c3ccccn3)n[nH]c2c1 | 16% | 42%
14 | CCCNC(=O)c1ccccc1Nc1ccc2c(/C=C/c3ccccn3)n[nH]c2c1 | 33% | 64%
15 | CC(C)C(NC(=O)c1ccccc1Nc1ccc2c(/C=C/c3ccccn3)n[nH]c2c1)C(C)C | 18% | -2%
16 | O=C(NCS(=O)(=O)O)c1ccccc1Nc1ccc2c(/C=C/c3ccccn3)n[nH]c2c1 | 2% | -3%
17 | CN1CCN(NC(=O)c2ccccc2Nc2ccc3c(/C=C/c4ccccn4)n[nH]c3c2)CC1 | 19 to 38% | -1%
18 | O=C(NC1CCN(Cc2ccccc2)CC1)c1ccccc1Nc1ccc2c(/C=C/c3ccccn3)n[nH]c2c1 | 44% | 19%
19 | CCCCCCCNC(=O)c1ccccc1Nc1ccc2c(/C=C/c3ccccn3)n[nH]c2c1 | 9% | 34%
20 | O=C(NCCCN1CCCC1=O)c1ccccc1Nc1ccc2c(/C=C/c3ccccn3)n[nH]c2c1 | 25% | 35%
21 | CCC(C)NC(=O)c1ccccc1Nc1ccc2c(/C=C/c3ccccn3)n[nH]c2c1 (centres undefined) | 29% | 58%
22 | O=C(NCc1cccc(F)c1)c1ccccc1Nc1ccc2c(/C=C/c3ccccn3)n[nH]c2c1 | 81% | 95%
23 | CC(C)(C)c1cc(NC(=O)c2ccccc2Nc2ccc3c(/C=C/c4ccccn4)n[nH]c3c2)no1 | 15% | 4%

Row | Structure (SMILES) | inhibition at 0.0005 µM [1] | inhibition at 0.002 µM [2]
24 | O=C(O)CNC(=O)CCNC(=O)c1ccccc1Nc1ccc2c(/C=C/c3ccccn3)n[nH]c2c1 | 49% | -9%
25 | O=C(NNc1ccccc1)c1ccccc1Nc1ccc2c(/C=C/c3ccccn3)n[nH]c2c1 | 18% | 29%
26 | CSCCCNC(=O)c1ccccc1Nc1ccc2c(/C=C/c3ccccn3)n[nH]c2c1 | 44% | 100%
27 | CN(C)CCCCNC(=O)c1ccccc1Nc1ccc2c(/C=C/c3ccccn3)n[nH]c2c1 | 23% | 16%
28 | NC(=O)[C@H](CO)NC(=O)c1ccccc1Nc1ccc2c(/C=C/c3ccccn3)n[nH]c2c1 | 17% | 4%
29 | O=C(NCCCN1CCCCC1)c1ccccc1Nc1ccc2c(/C=C/c3ccccn3)n[nH]c2c1 | 16% | 7%
30 | CC(C)(CO)CNC(=O)c1ccccc1Nc1ccc2c(/C=C/c3ccccn3)n[nH]c2c1 | 8% | 22%
31 | O=C(NCc1ccncc1)c1ccccc1Nc1ccc2c(/C=C/c3ccccn3)n[nH]c2c1 | 34% | 58%
32 | CN(C)CCCNC(=O)c1ccccc1Nc1ccc2c(/C=C/c3ccccn3)n[nH]c2c1 | 6% | 1%
33 | O=C(NNC1=NCCN1)c1ccccc1Nc1ccc2c(/C=C/c3ccccn3)n[nH]c2c1 | 34% | 69%
34 | COCCCNC(=O)c1ccccc1Nc1ccc2c(/C=C/c3ccccn3)n[nH]c2c1 | 26% | 31%
35 | CONC(=O)c1ccccc1Nc1ccc2c(/C=C/c3ccccn3)n[nH]c2c1 | 62% | 99%
36 | CCN(CC)CCNC(=O)c1ccccc1Nc1ccc2c(/C=C/c3ccccn3)n[nH]c2c1 | 39% | 15%
37 | COCC(C)NC(=O)c1ccccc1Nc1ccc2c(/C=C/c3ccccn3)n[nH]c2c1 (centres undefined) | 18% | 32%
38 | CC1(C)OCC(CNC(=O)c2ccccc2Nc2ccc3c(/C=C/c4ccccn4)n[nH]c3c2)O1 (centres undefined) | 28% | 69%
39 | CCCCC(CC)CNC(=O)c1ccccc1Nc1ccc2c(/C=C/c3ccccn3)n[nH]c2c1 (centres undefined) | 28% | 47%
40 | NC(=O)C[C@@H](NC(=O)c1ccccc1Nc1ccc2c(/C=C/c3ccccn3)n[nH]c2c1)C(N)=O | 21% | 15%
41 | O=C(NCCN(CCO)CCO)c1ccccc1Nc1ccc2c(/C=C/c3ccccn3)n[nH]c2c1 | 10% | 23%
42 | CC(C)c1ccc(CNC(=O)c2ccccc2Nc2ccc3c(/C=C/c4ccccn4)n[nH]c3c2)cc1 | 23% | 51%
43 | O=C(CNC(=O)c1ccccc1Nc1ccc2c(/C=C/c3ccccn3)n[nH]c2c1)NO | 5% | 9%
44 | O=C(NC1CCS(=O)(=O)C1)c1ccccc1Nc1ccc2c(/C=C/c3ccccn3)n[nH]c2c1 (centres undefined) | 27% | 2%
45 | CCCCCCNC(=O)c1ccccc1Nc1ccc2c(/C=C/c3ccccn3)n[nH]c2c1 | 21% | 90%
46 | Cc1ccccc1CNC(=O)c1ccccc1Nc1ccc2c(/C=C/c3ccccn3)n[nH]c2c1 | 24% | 99%

Row | Structure (SMILES) | inhibition at 0.0005 µM [1] | inhibition at 0.002 µM [2]
47 | CC1(C)CC(NC(=O)c2ccccc2Nc2ccc3c(/C=C/c4ccccn4)n[nH]c3c2)C(C)(C)N1O (centres undefined) | 15% | 8%
48 | O=C(NNC(=O)c1ccccc1Nc1ccc2c(/C=C/c3ccccn3)n[nH]c2c1)c1cccs1 | 65% | 90%
49 | Nc1nnc(NC(=O)c2ccccc2Nc2ccc3c(/C=C/c4ccccn4)n[nH]c3c2)[nH]1 | -6% | 41%
50 | CC(CNC(=O)c1ccccc1Nc1ccc2c(/C=C/c3ccccn3)n[nH]c2c1)N(C)C (centres undefined) | -9% | 1%
51 | CCC(COC)NC(=O)c1ccccc1Nc1ccc2c(/C=C/c3ccccn3)n[nH]c2c1 (centres undefined) | 1% | 65%
52 | Cc1ccc(N(C)NC(=O)c2ccccc2Nc2ccc3c(/C=C/c4ccccn4)n[nH]c3c2)nn1 | 18% | -3%
53 | O=C(NOCc1ccccc1)c1ccccc1Nc1ccc2c(/C=C/c3ccccn3)n[nH]c2c1 | 70 to 74% | 101 to 111%
54 | COC(=O)NNC(=O)c1ccccc1Nc1ccc2c(/C=C/c3ccccn3)n[nH]c2c1 | 8% | 21%
55 | CCN1CCC[C@H]1CNC(=O)c1ccccc1Nc1ccc2c(/C=C/c3ccccn3)n[nH]c2c1 | 15% | 23%
56 | CC(C)N(CCNC(=O)c1ccccc1Nc1ccc2c(/C=C/c3ccccn3)n[nH]c2c1)C(C)C | 37% | 15%
57 | O=C(Nc1nccs1)c1ccccc1Nc1ccc2c(/C=C/c3ccccn3)n[nH]c2c1 | 33% | 94%
58 | O=C(NCCN1CCNC1=O)c1ccccc1Nc1ccc2c(/C=C/c3ccccn3)n[nH]c2c1 | 5% | 1%
59 | Cn1cncc1CCNC(=O)c1ccccc1Nc1ccc2c(/C=C/c3ccccn3)n[nH]c2c1 | -6% | 0%
60 | O=C(O)CCCNC(=O)c1ccccc1Nc1ccc2c(/C=C/c3ccccn3)n[nH]c2c1 | 16% | 20%
61 | O=C(O)CCNC(=O)c1ccccc1Nc1ccc2c(/C=C/c3ccccn3)n[nH]c2c1 | 4% | 20%
62 | O=C(NN1CCCC1)c1ccccc1Nc1ccc2c(/C=C/c3ccccn3)n[nH]c2c1 | 17% | 23%
63 | CC(NC(=O)c1ccccc1Nc1ccc2c(/C=C/c3ccccn3)n[nH]c2c1)c1ccccc1 (centres undefined) | 30% | 94%
64 | O=C(NCCN1CCOCC1)c1ccccc1Nc1ccc2c(/C=C/c3ccccn3)n[nH]c2c1 | 28% | 22%
65 | CCC(O)CNC(=O)c1ccccc1Nc1ccc2c(/C=C/c3ccccn3)n[nH]c2c1 (centres undefined) | 13% | 23%
66 | O=C(NCCc1cccnc1)c1ccccc1Nc1ccc2c(/C=C/c3ccccn3)n[nH]c2c1 | 23% | 61%
67 | CC1CCC(NC(=O)c2ccccc2Nc2ccc3c(/C=C/c4ccccn4)n[nH]c3c2)CC1 (centres undefined) | -11% | 42%
